Here are results for 24 compounds from patent US20120065173A1 (priority 2006, published 2012).

pIC50: −log10 of the molar value.

In the assay the target is T1, recombinant human GR (Homo sapiens, UniProt P04150).
T1 construct: purchased Panvera/Invitrogen P2812 (kit P2893)
T1 sequence (P04150 1-777): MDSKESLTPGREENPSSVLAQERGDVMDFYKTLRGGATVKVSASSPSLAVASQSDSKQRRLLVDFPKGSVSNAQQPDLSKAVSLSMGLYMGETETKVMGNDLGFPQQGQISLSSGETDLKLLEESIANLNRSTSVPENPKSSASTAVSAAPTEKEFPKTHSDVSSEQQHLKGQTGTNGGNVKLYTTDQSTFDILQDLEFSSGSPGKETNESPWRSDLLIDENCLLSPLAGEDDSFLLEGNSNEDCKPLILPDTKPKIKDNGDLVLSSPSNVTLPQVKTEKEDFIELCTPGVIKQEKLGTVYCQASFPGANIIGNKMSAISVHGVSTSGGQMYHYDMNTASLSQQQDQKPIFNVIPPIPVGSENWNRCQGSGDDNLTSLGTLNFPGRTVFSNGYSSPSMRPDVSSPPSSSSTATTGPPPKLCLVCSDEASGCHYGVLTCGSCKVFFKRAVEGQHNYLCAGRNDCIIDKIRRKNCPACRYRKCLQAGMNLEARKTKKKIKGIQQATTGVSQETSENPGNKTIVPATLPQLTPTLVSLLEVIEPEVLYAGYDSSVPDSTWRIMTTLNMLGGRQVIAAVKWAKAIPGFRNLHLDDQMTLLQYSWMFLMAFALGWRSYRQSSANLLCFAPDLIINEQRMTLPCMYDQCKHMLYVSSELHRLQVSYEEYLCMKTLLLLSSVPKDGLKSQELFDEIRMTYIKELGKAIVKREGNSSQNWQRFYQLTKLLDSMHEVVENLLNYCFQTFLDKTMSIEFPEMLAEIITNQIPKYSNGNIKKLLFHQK
Nature of the assay: Human Glucocorticoid Receptor (GR) Assay, fluorescence polarization (GRhuFL_FP_v2). To be noted: GS Red tracer, 2 hours at room temperature, 100% control 10 μM Dexamethasone. In kind it is binding. Here is the method: Human Glucocorticoid Receptor (GR) Assay
The assay is based on a commercial kit from Panvera/Invitrogen (Part number P2893). The assay technology is fluorescence polarization. […] The GR and Stabilizing Peptide reagents are stored at −70° C. while the GS Red is stored at −20° C. Also included in the kit are 1M DTT (Panvera, Part number P2325, stored at −20° C.) and GR Screening buffer 10× (Panvera, Part number P2814, stored at −70° C. initially but once thawed stored at room temperature). Avoid repeated freeze/thaws for all reagents. The GR Screening buffer 10× comprises 100 mM potassium phosphate, 200 mM sodium molybdate, 1 mM EDTA and 20% DMSO.
0% control was 100% DMSO and 100% control was 10 μM Dexamethasone. Background solution (8 μL; assay buffer 10×, Stabilizing Peptide, DTT and ice cold MQ water) was added to the background wells. GS Red solution (7 μL; assay buffer 10×, Stabilizing Peptide, DTT, GS Red and ice cold water) was added to all wells except background wells. GR solution (7 μL; assay buffer 10×, Stabilizing Peptide, DTT, GR and ice cold water) was added to all wells. The plate was sealed and incubated in a dark at room temperature for 2 hours.
With `C[C@H](NS(=O)(=O)C1CC1)[C@H](Oc1cc2cnn(-c3ccc(F)cc3)c2cc1Cl)c1ccc(F)cc1` (racemic) [Example 35, N-[(1RS,2SR)-1-[6-chloro-1-(4-fluorophenyl)indazol-5-yl]oxy-1-(4-fluorophenyl)propan-2-yl]cyclopropanesulfonamide], the pIC50 is 8.21.
In the case of `CC(NS(=O)(=O)C1CC1)C(Oc1cc2cnn(-c3ccc(F)cc3)c2cc1Cl)c1ccc(F)cc1` (racemic) [Example 36, N-[(1RS,2RS)-1-[6-chloro-1-(4-fluorophenyl)indazol-5-yl]oxy-1-(4-fluorophenyl)propan-2-yl]cyclopropanesulfonamide], the pIC50 was 8.37.
Regarding `C[C@H](NS(=O)(=O)C1CC1)[C@H](Oc1cccc2c1cnn2-c1ccc(F)cc1)c1ccccc1` [Example 3, N-[(1R,2S)-1-[1-(4-fluorophenyl)indazol-4-yl]oxy-1-phenyl-propan-2-yl]cyclopropanesulfonamide], the pIC50 was 7.05.
To `C[C@H](NS(=O)(=O)C1CC1)[C@H](Oc1ccc2c(cnn2-c2ccc(F)nc2)c1)c1ccccc1` [Example 4, N-[(1R,2S)-1-[1-(6-fluoropyridin-3-yl)indazol-5-yl]oxy-1-phenyl-propan-2-yl]cyclopropanesulfonamide] belongs 8.31.
To `C[C@H](NS(=O)(=O)Cc1ccccc1)[C@H](Oc1ccc2c(cnn2-c2ccc(F)cc2)c1)c1ccccc1` [Example 6, N-[(1R,2S)-1-[1-(4-fluorophenyl)indazol-5-yl]oxy-1-phenyl-propan-2-yl]-1-phenyl-methanesulfonamide] belongs 8.23.
On to `C[C@H](NS(=O)(=O)N(C)C)[C@H](Oc1ccc2c(cnn2-c2ccc(F)cc2)c1)c1ccccc1` [Example 8], for which the pIC50 is 8.34.
On to `C[C@H](NS(=O)(=O)CCN1C(=O)c2ccccc2C1=O)[C@H](Oc1ccc2c(cnn2-c2ccc(F)cc2)c1)c1ccccc1` [Example 10, 2-(1,3-Dioxoisoindol-2-yl)-N-[(1R,2S)-1-[1-(4-fluorophenyl)indazol-5-yl]oxy-1-phenyl-propan-2-yl]ethanesulfonamide], for which the pIC50 was 8.19.
Regarding `COc1ccc(OCCCS(=O)(=O)N[C@@H](C)[C@H](Oc2ccc3c(cnn3-c3ccc(F)cc3)c2)c2ccccc2)cc1` [Example 11, N-[(1R,2S)-1-[1-(4-fluorophenyl)indazol-5-yl]oxy-1-phenyl-propan-2-yl]-3-(4-methoxyphenoxy)propane-1-sulfonamide], the pIC50 was 8.16.
Regarding `CCS(=O)(=O)N[C@@H](C)[C@H](Oc1ccc2c(cnn2-c2ccc(F)cc2)c1)c1ccccc1` [Example 12, N-[(1R,2S)-1-[1-(4-fluorophenyl)indazol-5-yl]oxy-1-phenyl-propan-2-yl]ethanesulfonamide], the pIC50 is 8.55.
`CCCC(C)S(=O)(=O)N[C@@H](C)[C@H](Oc1ccc2c(cnn2-c2ccc(F)cc2)c1)c1ccccc1` (stereo partly drawn) [Example 13, N-[(1R,2S)-1-[1-(4-fluorophenyl)indazol-5-yl]oxy-1-phenyl-propan-2-yl]pentane-2-sulfonamide]: the pIC50 was 8.30.
For the compound `CCCCS(=O)(=O)N[C@@H](C)[C@H](Oc1ccc2c(cnn2-c2ccc(F)cc2)c1)c1ccccc1` [Example 15], the pIC50 was 8.27.
Regarding `C[C@H](NS(=O)(=O)CCC(F)(F)F)[C@H](Oc1ccc2c(cnn2-c2ccc(F)cc2)c1)c1ccccc1` [Example 18, 3,3,3-trifluoro-N-[(1R,2S)-1-[1-(4-fluorophenyl)indazol-5-yl]oxy-1-phenyl-propan-2-yl]propane-1-sulfonamide], the negative-log IC50 (pIC50) was 8.37.
To `COC(=O)CCS(=O)(=O)N[C@@H](C)[C@H](Oc1ccc2c(cnn2-c2ccc(F)cc2)c1)c1ccccc1` [Example 19, Methyl 3-[[(1R,2S)-1-[1-(4-fluorophenyl)indazol-5-yl]oxy-1-phenyl-propan-2-yl]sulfamoyl]propanoate] belongs 8.29.
On to `C[C@H](NS(=O)(=O)CC1CCCC1)[C@H](Oc1ccc2c(cnn2-c2ccc(F)cc2)c1)c1ccccc1` [Example 20, 1-Cyclopentyl-N-[(1R,2S)-1-[1-(4-fluorophenyl)indazol-5-yl]oxy-1-phenyl-propan-2-yl]methanesulfonamide], for which the pIC50 is 8.06.
Consider `C[C@H](NS(=O)(=O)C1CCCC1)[C@H](Oc1ccc2c(cnn2-c2ccc(F)cc2)c1)c1ccccc1` [Example 21, N-[(1R,2S)-1-[1-(4-fluorophenyl)indazol-5-yl]oxy-1-phenyl-propan-2-yl]cyclopentanesulfonamide], for which the pIC50 was 8.00.
For the compound `C[C@H](NS(=O)(=O)CC(F)(F)F)[C@H](Oc1ccc2c(cnn2-c2ccc(F)cc2)c1)c1ccccc1` [Example 22, 2,2,2-trifluoro-N-[(1R,2S)-1-[1-(4-fluorophenyl)indazol-5-yl]oxy-1-phenyl-propan-2-yl]ethanesulfonamide], the pIC50 is 8.57.
With `C[C@H](NS(=O)(=O)CC1CCCCC1)[C@H](Oc1ccc2c(cnn2-c2ccc(F)cc2)c1)c1ccccc1` [Example 23, 1-Cyclohexyl-N-[(1R,2S)-1-[1-(4-fluorophenyl)indazol-5-yl]oxy-1-phenyl-propan-2-yl]methanesulfonamide], the pIC50 is 8.02.
To `CCCCCCS(=O)(=O)N[C@@H](C)[C@H](Oc1ccc2c(cnn2-c2ccc(F)cc2)c1)c1ccccc1` [Example 24, N-[(1R,2S)-1-[1-(4-fluorophenyl)indazol-5-yl]oxy-1-phenyl-propan-2-yl]hexane-1-sulfonamide] belongs 8.12; to `C[C@H](NS(=O)(=O)c1cccnc1)[C@H](Oc1ccc2c(cnn2-c2ccc(F)cc2)c1)c1ccccc1` [Example 25, N-[(1R,2S)-1-[1-(4-fluorophenyl)indazol-5-yl]oxy-1-phenyl-propan-2-yl]pyridine-3-sulfonamide], 8.15.
As to `Cc1ccc(-n2ncc3cc(O[C@H](c4ccccc4)C(C)(C)NS(=O)(=O)C4CC4)ccc32)cc1` [Example 26, (R)—N-(2-methyl-1-phenyl-1-(1-p-tolyl-1H-indazol-5-yloxy)propan-2-yl)cyclopropanesulfonamide], the pIC50 is 7.11.
For the compound `CC(C)n1ncc2cc(O[C@H](c3ccccc3)[C@H](C)NS(C)(=O)=O)ccc21` [Example 30, N-[(1R,2S)-1-phenyl-1-(1-propan-2-ylindazol-5-yl)oxy-propan-2-yl]methanesulfonamide], the pIC50 is 6.48.
To `C[C@H](NS(=O)(=O)C1CC1)[C@H](Oc1ccc2c(cnn2-c2ccc(F)cc2)c1)c1ccc([S+](C)[O-])cc1` (stereo partly drawn) [Example 31, N-[(1R,2S)-1-[1-(4-fluorophenyl)indazol-5-yl]oxy-1-(4-methylsulfinylphenyl)propan-2-yl]cyclopropanesulfonamide] belongs 8.19; to `C[C@H](NS(=O)(=O)C1CC1)[C@H](Oc1ccc2c(cnn2C2CCCC2)c1)c1ccccc1` [Example 32, N-[(1R,2S)-1-(1-cyclopentylindazol-5-yl)oxy-1-phenyl-propan-2-yl]cyclopropanesulfonamide], 8.12.
Regarding `CC(C)n1ncc2cc(O[C@H](c3ccccc3)[C@H](C)NS(=O)(=O)C3CC3)ccc21` [Example 33, N-[(1R,2S)-1-phenyl-1-(1-propan-2-ylindazol-5-yl)oxy-propan-2-yl]cyclopropanesulfonamide], the pIC50 was 6.77.

As usually defined, the pIC50 is the IC50 on a negative log10 scale, so that one unit is a factor of ten.
